Source: patent publication EP1020526B1, “Process for producing L-Threonine by fermentation” (priority 1992, dated 1994)
≈ marks a conversion by molar mass, not a printed value.

Legend:
[1] = biological target: T1, Escherichia coli aspartokinase III (AK III, lysC), wild type, SEQ ID NO: 1 (Escherichia coli, UniProt P08660); experiment: Aspartokinase (AK III) activity, lysine-dependent inhibition, crude enzyme, hydroxamate method of Stadtman et al.; format: biochemical
T1 construct: made in house; host or cells: E. coli GT3 (lacks AK I, II and III) carrying pLYSC1; cell-free extract, ammonium sulfate fraction
T1 sequence (P08660 2-449): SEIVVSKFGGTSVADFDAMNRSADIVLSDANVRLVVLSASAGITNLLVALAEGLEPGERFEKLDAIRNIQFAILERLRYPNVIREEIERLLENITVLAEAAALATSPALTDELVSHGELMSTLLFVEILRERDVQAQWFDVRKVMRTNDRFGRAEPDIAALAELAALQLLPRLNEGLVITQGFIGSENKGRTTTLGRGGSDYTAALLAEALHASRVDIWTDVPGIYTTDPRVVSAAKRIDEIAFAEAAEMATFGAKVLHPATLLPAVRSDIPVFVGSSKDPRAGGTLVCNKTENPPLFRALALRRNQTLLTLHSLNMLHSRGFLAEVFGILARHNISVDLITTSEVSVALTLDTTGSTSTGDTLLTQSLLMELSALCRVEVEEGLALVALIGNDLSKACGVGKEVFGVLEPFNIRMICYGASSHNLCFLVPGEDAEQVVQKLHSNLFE
Protocol: (§1) A completely AK-deficient GT3 strain was used as the host in respect of which the above mentioned 14 mutant pLYSC1's (named the pLYSC1* series) and wild pLYSC1 plasmids were respectively used for transformation, after which a cell-free extract was prepared from the transformants and the enzyme activity of AK III was measured. The method for the measurement of the enzyme activity was as follows.
(§2) • (1) Culturing of cells in 2 x TY medium, followed by cell collection at O.D. 660 nm = approx. 0.8. • (2) Washing with 0.02 M KH2PO4 (pH 6.75) - 0.03 M β mercaptoethanol at 0°C. • (3) Sonic crushing of cells (0°C, 100 W, 30 sec x 4 times). • (4) Centrifugation at 0°C, 33 krpm for 1 hour, followed by addition of ammonium sulfate to supernatant to 80% saturation. • (5) Centrifugation, followed by dissolution of pellets in buffer of (2), and preservation (-20°C).
(§3) The method of measuring the enzyme activity was according to the method of Stadtman, et al. (Stadtman, E.R., Cohen, G.N., Lebras, G. and Robichon-Szulmajster, H., J. Biol. Chem., 236, 2033, 1961).
(§4) Table 5: Reaction solution composition
(§5) The measurement method is outlined in Table 6 below. Table 6: Outline of measurement method
(§6) For the measurement of the enzyme activity of AK, lysine was added to the enzyme reaction solutions at various concentrations, and the levels of lysine-dependent inhibition were determined.
(§7) In Table 7, the inhibition release is presented as the activity (%) in the presence of 100 mM of lysine with respect to the activity of a lysine-free reaction solution, and the thermal stability is presented as the maintenance of activity (%) after treatment at 55°C for 1.5 hours with respect to the activity without heating. Table 7: Inhibition release by lysine and thermal stability

[2] = system: GT3/pLYSC2; experiment: Growth of completely AK-deficient GT3 strain possessing lysC plasmid on M9 minimal agar with added lysine or AEC; note: key: +: growth; ±: some growth; -: no growth; format: cell-based, E. coli; details: M9 agar medium, 37°C, 2 day culturing
Protocol: (§8) First, pLYSC1 and pLYSC2 were each incorporated into E. coli GT3 for its transformation to obtain two different transformants, and culturing was effected on an M9 minimal agar plate medium containing lysine or AEC. Also, the growth inhibition concentration of lysine or AEC was determined, and the conditions for selection of lysC* were investigated.

[3] = system: GT3/pLYSC1; experiment: as above; format: cell-based, E. coli; details: for growth: M9 agar medium, 37°C, 2 day culturing; for MIC: Escherichia coli, GT3, M9 minimal agar plate medium, read-out: concentration at which growth was completely inhibited; for Growth: key: +: growth; ±: some growth; -: no growth
Protocol: as §8

[4] = biological target: T2, Escherichia coli aspartokinase III (AK III) mutant lysC* No. 172, 318 Met→Ile, 349 Val→Met (Escherichia coli, UniProt P08660, M318I/V349M); experiment: Aspartokinase (AK III) activity, lysine-dependent inhibition; format: biochemical
T2 construct: made in house; host or cells: E. coli GT3 carrying mutant pLYSC1*; cell-free extract
T2 sequence (P08660 2-449 M318I/V349M): as the sequence (P08660 2-449) above, with M317I, V348M counted along it
Protocol: as §1, §2, §3, §4, §5, §6, §7

[5] = biological target: T3, Escherichia coli aspartokinase III (AK III) mutant lysC* No. 149, 34 Arg→Cys, 323 Gly→Asp (Escherichia coli, UniProt P08660, G323D/R34C); experiment: as above; format: biochemical; details: activity in the presence of 100 mM of lysine with respect to lysine-free reaction solution
T3 construct: made in house; host or cells: E. coli GT3 carrying mutant pLYSC1*; cell-free extract
T3 sequence (P08660 2-449 R34C/G323D): as the sequence (P08660 2-449) above, with R33C, G322D counted along it
Protocol: as §1, §2, §3, §4, §5, §6, §7

[6] = biological target: T4, Escherichia coli aspartokinase III (AK III) mutant lysC* No. 117, 345 Ser→Leu (Escherichia coli, UniProt P08660, S345L); experiment: as above; format: biochemical
T4 construct: made in house; host or cells: E. coli GT3 carrying mutant pLYSC1*; cell-free extract
T4 sequence (P08660 2-449 S345L): as the sequence (P08660 2-449) above, with S344L counted along it
Protocol: as §1, §2, §3, §4, §5, §6, §7

[7] = biological target: T5, Escherichia coli aspartokinase III (AK III) mutant lysC* No. 169, 352 Thr→Ile, 369 Ser→Phe (Escherichia coli, UniProt P08660, S369F/T352I); experiment: as above; format: biochemical
T5 construct: made in house; host or cells: E. coli GT3 carrying mutant pLYSC1*; cell-free extract
T5 sequence (P08660 2-449 T352I/S369F): as the sequence (P08660 2-449) above, with T351I, S368F counted along it
Protocol: as §1, §2, §3, §4, §5, §6, §7

[8] = biological target: T6, Escherichia coli aspartokinase III (AK III) mutant lysC* No. 80, 352 Thr→Ile (Escherichia coli, UniProt P08660, T352I); experiment: as above; format: biochemical
T6 construct: made in house; host or cells: E. coli GT3 carrying mutant pLYSC1*; cell-free extract
T6 sequence (P08660 2-449 T352I): as the sequence (P08660 2-449) above, with T351I counted along it
Protocol: as §1, §2, §3, §4, §5, §6, §7

[9] = biological target: T7, Escherichia coli aspartokinase III (AK III) mutant lysC* No. 24, 352 Thr→Ile (Escherichia coli, UniProt P08660, T352I); experiment: as above; format: biochemical
T7 construct: made in house; host or cells: E. coli GT3 carrying mutant pLYSC1*; cell-free extract
T7 sequence (P08660 2-449 T352I): as the sequence (P08660 2-449) above, with T351I counted along it
Protocol: as §1, §2, §3, §4, §5, §6, §7

[10] = lysine, compared with wild type AK III

Row | SMILES | growth ([2]; 0.2 mM added) | growth ([2]; 0.4 mM added) | growth ([2]; 0.8 mM added) | growth ([2]; 1.5 mM added) | growth ([2]; 3 mM added) | growth ([2]; 6 mM added) | growth ([2]; 12 mM added) | growth ([2]; 25 mM added) | growth ([2]; 50 mM added) | growth ([3]; 0.2 mM added) | growth ([3]; 0.4 mM added) | growth ([3]; 0.8 mM added) | growth ([3]; 1.5 mM added) | growth ([3]; 3 mM added) | growth ([3]; 6 mM added) | growth ([3]; 12 mM added) | growth ([3]; 25 mM added) | growth ([3]; 50 mM added) | MIC [3] | also measured
1 | NCCCC[C@H](N)C(=O)O [lysine] | + | + | + | + | + | + | + | + | + | - | - | - | - | - | - | - | - | - | ~200 µM (≈ 29.2 µg/mL) | IC50 [1]: ~450 µM; inhibition at 5000 µM ([1]; 5 mM of lysine): ~100%; activity at 100000 µM ([1]; activity in the presence of 100 mM of lysine with respect to lysine-free reaction solution, read-out: Inhibition release (%)): 0%; growth ([2]; 100 mM added): ±; growth ([2]; 200 mM added): -; growth ([3]; 100 mM added): -; growth ([3]; 200 mM added): -; inhibition ([4]; 100 mM of lysine): practically no inhibition; 50% inhibition concentration (fold) [4, 10]: ≥ 200 fold; Inhibition release (%) [5]: 59%; inhibition ([6]; 100 mM of lysine): practically no inhibition; 50% inhibition concentration (fold) [6, 10]: ≥ 200 fold; inhibition ([7]; 100 mM of lysine): practically no inhibition; 50% inhibition concentration (fold) [7, 10]: ≥ 200 fold; inhibition ([8]; 100 mM of lysine): practically no inhibition; 50% inhibition concentration (fold) [8, 10]: ≥ 200 fold; inhibition ([9]; 100 mM of lysine): practically no inhibition; 50% inhibition concentration (fold) [9, 10]: ≥ 200 fold
2 | NCCSC[C@H](N)C(=O)O [AEC, S-2-aminoethylcysteine, reference compound] | ± | ± | ± | ± | ± | - | - | - | - | - | - | - | - | - | - | - | - | - | ~200 µM (≈ 32.8 µg/mL) | 
